Laboratory results from article PMC9628821, “Discovery of Chitin Deacetylase Inhibitors through Structure-Based Virtual Screening and Biological Assays” (Journal of Microbiology and Biotechnology, 2022).

T1: AnCDA (Aspergillus nidulans chitin deacetylase) (Aspergillus nidulans, UniProt Q5AQQ0)
T1 construct: gene cda; recombinant AnCDA (GenBank XM_677557.1), expressed in Pichia pastoris, His-tag purified
T1 sequence (Q5AQQ0 19-237): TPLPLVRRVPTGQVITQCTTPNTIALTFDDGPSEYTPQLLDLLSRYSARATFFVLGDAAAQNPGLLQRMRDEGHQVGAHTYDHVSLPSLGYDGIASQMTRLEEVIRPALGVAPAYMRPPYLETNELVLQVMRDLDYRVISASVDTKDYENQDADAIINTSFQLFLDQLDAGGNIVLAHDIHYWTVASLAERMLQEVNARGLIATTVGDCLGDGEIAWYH


Legend:
[1] = molecular target: T1, AnCDA (Aspergillus nidulans chitin deacetylase); experiment: acetate release assay on (GlcNAc)[…] with purified AnCDA; Dixon plot Ki (abstract also gives IC50 […]); assay type: biochemical
[2] = substrate: CC(=O)N[C@H]1[C@H](O[C@H]2[C@H](O)[C@@H](NC(C)=O)[C@H](O[C@H]3[C@H](O)[C@@H](NC(C)=O)C(O)O[C@@H]3CO)O[C@@H]2CO)O[C@H](CO)[C@@H](O[C@@H]2O[C@H](CO)[C@@H](O[C@@H]3O[C@H](CO)[C@@H](O)[C@H](O)[C@H]3NC(C)=O)[C@H](O)[C@H]2NC(C)=O)[C@@H]1O; experiment: enzyme kinetics (Km) by acetate release assay; assay type: biochemical, Aspergillus nidulans; conditions: Co2+ ([…] CoCl2 in assay) active site

Molecule | Ki [1] [µM] | Km [2] [µM]
Cc1ccc(-c2nc(CNC(=O)c3cccnc3Cl)no2)cc1 [J075-4187] | 31.6 | 
AnCDA (Aspergillus nidulans chitin deacetylase) (Aspergillus nidulans FGSC A4) (protein, recombinant AnCDA (GenBank XM_677557.1), expressed in Pichia pastoris, His-tag purified) TPLPLVRRVPTGQVITQCTTPNTIALTFDDGPSEYTPQLLDLLSRYSARATFFVLGDAAAQNPGLLQRMRDEGHQVGAHTYDHVSLPSLGYDGIASQMTRLEEVIRPALGVAPAYMRPPYLETNELVLQVMRDLDYRVISASVDTKDYENQDADAIINTSFQLFLDQLDAGGNIVLAHDIHYWTVASLAERMLQEVNARGLIATTVGDCLGDGEIAWYH |  | 72
